Measured values: patent US11542262B2, “Phosphatidylinositol 3-kinase inhibitors” (NANJING ZHENGXIANG PHARMACEUTICALS CO., LTD., priority 2019, dated 2023)

Columns and labels:
PI3Kγ = PI3Kγ (Homo sapiens, UniProt P48736); assay: ADP-Glo luminescent assay, enzymatic activity of PI3K gamma; type: biochemical; conditions: ATP 25 μM; read-out: PI3K gamma (nM) inhibitory activity (IC50)
Procedure: The compounds would be tested from 1 or 10 μM, 3-fold dilution for 10 doses, in duplicate.
Compound preparation: Dilute a compound to 100× of the final desired highest inhibitor concentration in reaction by 100% DMSO. Transfer 100 μl of this compound dilution to a well in a 96-well plate and serially dilute it with DMSO for a total of 10 concentrations.
Kinase reaction: Prepare a solution of PI3K in 1× kinase buffer at 2-fold the final concentration of each reagent in the assay. Control wells contain 1× kinase buffer without enzyme. Prepare substrate solution of PIP2 substrate and ATP in 1× kinase reaction buffer at 2-fold of the final concentration. Add concentration substrate solution to each well to the final concentration. Cover the assay plate, shake to mix, and incubate at room temperature for 1 hour. Add 5 μl of ADP-Glo reagent to each well to stop the reaction. […] Add 10 ul Kinase Detection Reagent to each well, shake 1 min, equilibrate for 30 min before reading on a luminescence plate reader.
Data Analysis: Convert RLU values to percent inhibition values as Percent inhibition=(max−sample RLU)/(max−min)*100. “min”—no enzyme control; “max”—DMSO control. Fit the data in XLFit excel add-in version 5.4.0.8 to obtain IC50 values. Y=Bottom+(Top−Bottom)/(1+(IC50/X)^HillSlope).

PI3K gamma = biological target: T1, PI3K gamma (Mus musculus, UniProt Q9JHG7); assay: Raw264.7 cell assay: phosphorylation of AKT in C5a stimulated RAW264.7 cells (AlphaLISA); type: cell-based; conditions: pAKT, read-out: PI3K gamma Raw264.7 cell (nM) cellular activity (IC50)
T1 construct: endogenous in cells; host or cells: RAW264.7
Procedure: This study aims to determine the inhibitory effect of compounds on PI3K gamma and PI3K delta in corresponding cell based assays. PI3K gamma activity was reflected by phosphorylation of AKT in C5a stimulated RAW264.7 cells, and PI3K delta activity was reflected by phosphorylation of AKT in anti-IgM stimulated Raji cells. Phosphorylation of AKT in cells was determined using AlphaLISA technology from PerkinElmer.
Raw264.7 cell assay: Prepare Passage 15 Raw264.7 cell and add 6 μL of 30K cells per well in 384-well plate by multidrop. Centrifuge at 500 RPM for 30 s and incubate for 2 hours at 37° C., 5% CO2. Add 30 nL compound by echo and incubate for 30 min at 37° C., 5% CO2. […] Add 2 μL of 5× lysis buffer by multidrop, incubate for 10 min on a plate shaker. Add 5 μL acceptor mix provided in the kit, centrifuge at 1000 RPM for 1 min. Add 5 μL donor mix provided in the kit, centrifuge at 1000 RPM for 1 min and incubate in dark for 2 hours at 25° C. Read AlphaLISA signal on Envision.
Y=Bottom+(Top−Bottom)/(1+10^((Log IC50−X)*Hill Slope)) X: Log of cpd concentration Y: Inhibition

T1 sequence (Q9JHG7 whole entry): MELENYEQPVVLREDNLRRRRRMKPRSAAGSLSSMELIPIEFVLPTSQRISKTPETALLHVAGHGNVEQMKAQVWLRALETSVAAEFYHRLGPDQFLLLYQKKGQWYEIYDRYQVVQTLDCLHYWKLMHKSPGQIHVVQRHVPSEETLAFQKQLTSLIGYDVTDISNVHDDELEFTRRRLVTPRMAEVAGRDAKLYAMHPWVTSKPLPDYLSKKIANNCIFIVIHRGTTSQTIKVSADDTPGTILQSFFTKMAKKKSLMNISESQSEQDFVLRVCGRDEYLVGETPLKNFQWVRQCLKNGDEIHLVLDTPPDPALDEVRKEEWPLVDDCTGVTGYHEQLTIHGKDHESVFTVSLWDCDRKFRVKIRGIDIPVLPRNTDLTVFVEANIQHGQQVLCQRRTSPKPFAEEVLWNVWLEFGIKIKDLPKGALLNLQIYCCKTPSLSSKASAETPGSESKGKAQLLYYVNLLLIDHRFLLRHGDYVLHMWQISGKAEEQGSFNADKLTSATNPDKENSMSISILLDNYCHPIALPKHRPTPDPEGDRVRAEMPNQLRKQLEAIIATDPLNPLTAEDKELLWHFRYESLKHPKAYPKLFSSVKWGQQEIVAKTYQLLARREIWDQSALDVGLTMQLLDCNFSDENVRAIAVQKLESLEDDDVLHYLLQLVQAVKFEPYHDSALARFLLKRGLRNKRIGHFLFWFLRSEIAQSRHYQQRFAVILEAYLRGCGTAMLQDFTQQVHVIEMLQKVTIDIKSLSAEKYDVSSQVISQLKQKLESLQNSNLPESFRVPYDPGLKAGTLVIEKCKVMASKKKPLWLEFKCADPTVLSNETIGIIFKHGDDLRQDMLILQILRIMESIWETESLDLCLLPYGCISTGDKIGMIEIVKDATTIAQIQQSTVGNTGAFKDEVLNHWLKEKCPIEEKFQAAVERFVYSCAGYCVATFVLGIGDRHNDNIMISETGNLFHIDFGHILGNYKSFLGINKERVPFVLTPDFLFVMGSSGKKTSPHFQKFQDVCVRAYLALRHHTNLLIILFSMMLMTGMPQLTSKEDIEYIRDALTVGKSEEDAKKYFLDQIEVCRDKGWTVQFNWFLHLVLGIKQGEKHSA
T1 sequence (Q5SW28 whole entry partner): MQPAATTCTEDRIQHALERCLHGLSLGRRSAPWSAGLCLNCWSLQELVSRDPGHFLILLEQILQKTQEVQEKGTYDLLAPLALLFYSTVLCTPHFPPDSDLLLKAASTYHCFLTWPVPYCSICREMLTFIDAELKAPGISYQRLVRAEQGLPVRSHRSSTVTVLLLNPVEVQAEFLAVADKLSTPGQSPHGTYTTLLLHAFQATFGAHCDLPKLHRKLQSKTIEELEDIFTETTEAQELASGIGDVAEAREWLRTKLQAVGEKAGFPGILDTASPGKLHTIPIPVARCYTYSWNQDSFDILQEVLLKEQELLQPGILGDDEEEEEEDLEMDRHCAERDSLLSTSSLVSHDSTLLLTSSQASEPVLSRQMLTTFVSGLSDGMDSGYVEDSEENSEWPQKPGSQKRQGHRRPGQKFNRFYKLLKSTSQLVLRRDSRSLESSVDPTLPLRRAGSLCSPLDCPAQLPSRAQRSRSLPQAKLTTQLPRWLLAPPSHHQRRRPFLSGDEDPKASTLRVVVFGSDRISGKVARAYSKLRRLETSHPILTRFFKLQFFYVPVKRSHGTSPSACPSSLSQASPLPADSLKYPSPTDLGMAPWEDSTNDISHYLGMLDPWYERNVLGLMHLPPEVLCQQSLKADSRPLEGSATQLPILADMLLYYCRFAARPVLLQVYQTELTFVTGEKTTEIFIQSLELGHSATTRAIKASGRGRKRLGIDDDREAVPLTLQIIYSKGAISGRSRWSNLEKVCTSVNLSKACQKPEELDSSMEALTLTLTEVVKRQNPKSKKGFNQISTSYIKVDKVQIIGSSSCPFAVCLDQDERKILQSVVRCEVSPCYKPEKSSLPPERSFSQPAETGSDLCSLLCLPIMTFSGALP
Sequence of PI3Kγ (P48736 whole entry, species assumed): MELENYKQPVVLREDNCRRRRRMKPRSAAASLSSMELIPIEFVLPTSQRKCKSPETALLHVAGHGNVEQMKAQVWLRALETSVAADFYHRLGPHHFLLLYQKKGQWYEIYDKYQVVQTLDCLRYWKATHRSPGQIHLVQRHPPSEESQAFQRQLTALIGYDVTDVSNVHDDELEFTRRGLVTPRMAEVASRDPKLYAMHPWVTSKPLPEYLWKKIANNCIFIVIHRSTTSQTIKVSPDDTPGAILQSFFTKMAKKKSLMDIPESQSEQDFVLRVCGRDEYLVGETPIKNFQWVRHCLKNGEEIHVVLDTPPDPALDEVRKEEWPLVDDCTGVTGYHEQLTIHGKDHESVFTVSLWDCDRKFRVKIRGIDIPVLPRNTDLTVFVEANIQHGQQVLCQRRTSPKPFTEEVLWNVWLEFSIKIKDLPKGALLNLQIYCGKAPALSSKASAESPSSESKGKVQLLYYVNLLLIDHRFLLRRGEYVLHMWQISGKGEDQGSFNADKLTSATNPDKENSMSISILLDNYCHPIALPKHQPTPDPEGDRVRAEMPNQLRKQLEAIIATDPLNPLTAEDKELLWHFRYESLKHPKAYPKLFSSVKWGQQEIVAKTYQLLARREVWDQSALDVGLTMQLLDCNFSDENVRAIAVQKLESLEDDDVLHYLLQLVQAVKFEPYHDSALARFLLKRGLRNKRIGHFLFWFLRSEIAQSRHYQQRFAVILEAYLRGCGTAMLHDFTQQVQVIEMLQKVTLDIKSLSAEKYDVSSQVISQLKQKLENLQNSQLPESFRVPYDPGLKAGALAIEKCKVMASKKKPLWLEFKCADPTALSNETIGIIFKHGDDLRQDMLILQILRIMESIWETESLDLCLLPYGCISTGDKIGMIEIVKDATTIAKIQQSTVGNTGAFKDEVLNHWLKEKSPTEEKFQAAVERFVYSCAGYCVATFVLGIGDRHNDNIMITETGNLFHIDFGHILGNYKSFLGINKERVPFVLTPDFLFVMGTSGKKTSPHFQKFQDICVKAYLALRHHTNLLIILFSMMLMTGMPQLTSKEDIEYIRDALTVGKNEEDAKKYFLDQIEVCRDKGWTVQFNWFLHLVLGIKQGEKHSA

IC50 (PI3Kγ) | IC50 (PI3K gamma) | SMILES
2.5 nM | 3240 nM | CC(=O)Nc1nc(C)c(-c2cc3c(c(C(=O)N(C)C)n2)C(=O)N([C@@H](C)C2CC2)C3)s1 [Compound 29, (S)-6-(2-acetamido-4-methylthiazol-5-yl)-2-(1-cyclopropylethyl)-N,N-dimethyl-3-oxo-2,3-dihydro-1H-pyrrolo[3,4-c]pyridine-4-carboxamide]
9 nM |  | CC(=O)Nc1nc(C)c(-c2cc3c(c(N4CCOCC4)n2)C(=O)N(C(C)C(F)(F)F)C3)s1 (stereo in doubt) [Compound 37, (S)-N-(4-methyl-5-(4-morpholino-3-oxo-2-(1,1,1-trifluoropropan-2-yl)-2,3-dihydro-1H-pyrrolo[3,4-c]pyridin-6-yl)thiazol-2-yl)acetamide]
4.5 nM | 118 nM | CC(=O)Nc1nc(C)c(-c2cc3c(c([S+](C)[O-])c2)C(=O)N(C(C)(C)C)C3)s1 (racemic) [Compound 17, N-(5-(2-(tert-butyl)-7-(methylsulfinyl)-1-oxoisoindolin-5-yl)-4-methylthiazol-2-yl)acetamide]
56 nM |  | CC(=O)Nc1nc(C)c(-c2cc3c(c(C(=O)O)n2)C(=O)N([C@@H](C)C2CC2)C3)s1 [Compound 30, (S)-6-(2-acetamido-4-methylthiazol-5-yl)-2-(1-cyclopropylethyl)-3-oxo-2,3-dihydro-1H-pyrrolo[3,4-c]pyridine-4-carboxylic acid]
1.1 nM | 12 nM | CC(=O)Nc1nc(C)c(-c2cc3c(c(OC4COC4)n2)C(=O)N([C@@H](C)C2CC2)C3)s1 [Compound 52, (S)-N-(5-(2-(1-cyclopropylethyl)-4-(oxetan-3-yloxy)-3-oxo-2,3-dihydro-1H-pyrrolo[3,4-c]pyridin-6-yl)-4-methylthiazol-2-yl)acetamide]
0.61 nM |  | CC(=O)Nc1nc(C)c(-c2cc3c(c(N4CCC(O)C4)n2)C(=O)N([C@@H](C)C2CC2)C3)s1 (stereo partly drawn) [Compound 47, N-(5-(2-((S)-1-cyclopropylethyl)-4-(3-hydroxypyrrolidin-1-yl)-3-oxo-2,3-dihydro-1H-pyrrolo[3,4-c]pyridin-6-yl)-4-methylthiazol-2-yl)acetamide]
6.5 nM |  | CC(=O)Nc1nc(C)c(-c2cc3c(c(C(=O)N4CCOCC4)n2)C(=O)N([C@@H](C)C2CC2)C3)s1 [Compound 33, (S)-N-(5-(2-(1-cyclopropylethyl)-4-(morpholine-4-carbonyl)-3-oxo-2,3-dihydro-1H-pyrrolo[3,4-c]pyridin-6-yl)-4-methylthiazol-2-yl)acetamide]
16 nM |  | CC(=O)Nc1nc(C(F)F)c(-c2cc3c(c([S@@+](C)[O-])c2)C(=O)N([C@@H](C)C2CC2)C3)s1 (racemic) [Compound 18, N-(5-(2-((S)-1-cyclopropylethyl)-7-(methylsulfinyl)-1-oxoisoindolin-5-yl)-4-(difluoromethyl)thiazol-2-yl)acetamide]
4.2 nM | 27 nM | CC(=O)Nc1nc(C)c(-c2cc3c(c([S+]([O-])C(C)C)c2)C(=O)N([C@@H](C)C2CC2)C3)s1 (mixture of isomers) [Compound 14, N-(5-(2-((S)-1-cyclopropylethyl)-7-(isopropylsulfinyl)-1-oxoisoindolin-5-yl)-4-methylthiazol-2-yl)acetamide]
0.84 nM | 14 nM | CC(=O)Nc1nc(C)c(-c2cc3c(c(N4CC(O)C4)n2)C(=O)N([C@@H](C)C2CC2)C3)s1 [Compound 48, (S)-N-(5-(2-(1-cyclopropylethyl)-4-(3-hydroxyazetidin-1-yl)-3-oxo-2,3-dihydro-1H-pyrrolo[3,4-c]pyridin-6-yl)-4-methylthiazol-2-yl)acetamide]
4.6 nM | 17 nM | CC(=O)Nc1nc(C)c(-c2cc3c(c(CN4CCOCC4)n2)C(=O)N([C@@H](C)C2CC2)C3)s1 [Compound 54, (S)-N-(5-(2-(1-cyclopropylethyl)-4-(morpholinomethyl)-3-oxo-2,3-dihydro-1H-pyrrolo[3,4-c]pyridin-6-yl)-4-methylthiazol-2-yl)acetamide]
22 nM |  | CC(=O)Nc1nc(C)c(-c2ccc3c(n2)CN([C@@H](C)C2CC2)C3=O)s1 [Compound 9, (S)-N-(5-(6-(1-cyclopropylethyl)-5-oxo-6,7-dihydro-5H-pyrrolo[3,4-b]pyridin-2-yl)-4-methylthiazol-2-yl)acetamide]
1 nM | 38 nM | CC(=O)Nc1nc(C)c(-c2cc3c(c(N4CC(S(C)(=O)=O)C4)n2)C(=O)N([C@@H](C)C2CC2)C3)s1 [Compound 49, (S)-N-(5-(2-(1-cyclopropylethyl)-4-(3-(methylsulfonyl)azetidin-1-yl)-3-oxo-2,3-dihydro-1H-pyrrolo[3,4-c]pyridin-6-yl)-4-methylthiazol-2-yl)acetamide]
2.3 nM |  | CC(=O)Nc1nc(C)c(-c2cc3c(c(C(N)=O)n2)C(=O)N([C@@H](C)C2CC2)C3)s1 [Compound 31, (S)-6-(2-acetamido-4-methylthiazol-5-yl)-2-(1-cyclopropylethyl)-3-oxo-2,3-dihydro-1H-pyrrolo[3,4-c]pyridine-4-carboxamide]
1.8 nM |  | CC(=O)Nc1nc(Cl)c(-c2cc3c(c(N4CCOCC4)n2)C(=O)N([C@@H](C)C2CC2)C3)s1 [Compound 53, (S)-N-(4-chloro-5-(2-(1-cyclopropylethyl)-4-morpholino-3-oxo-2,3-dihydro-1H-pyrrolo[3,4-c]pyridin-6-yl)thiazol-2-yl)acetamide]
0.65 nM |  | CC(=O)Nc1nc(C)c(-c2cc3c(c(OC4CCOC4)n2)C(=O)N([C@@H](C)C2CC2)C3)s1 (stereo partly drawn) [Compound 51, N-(5-(2-((S)-1-cyclopropylethyl)-3-oxo-4-((tetrahydrofuran-3-yl)oxy)-2,3-dihydro-1H-pyrrolo[3,4-c]pyridin-6-yl)-4-methylthiazol-2-yl)acetamide]
4.5 nM | 1850 nM | Cc1nc(NC(=O)C(C)C)sc1-c1cc2c(c(P(C)(C)=O)c1)C(=O)N([C@@H](C)C1CC1)C2 [Compound 4, (S)-N-(5-(2-(1-cyclopropylethyl)-7-(dimethylphosphoryl)-1-oxoisoindolin-5-yl)-4-methylthiazol-2-yl)isobutyramide]
1.7 nM | 18 nM | CC(=O)Nc1nc(C)c(-c2cc3c(c(C(C)N4CCOCC4)n2)C(=O)N([C@@H](C)C2CC2)C3)s1 (stereo partly drawn) [Compound 55, N-(5-(2-((S)-1-cyclopropylethyl)-4-(1-morpholinoethyl)-3-oxo-2,3-dihydro-1H-pyrrolo[3,4-c]pyridin-6-yl)-4-methylthiazol-2-yl)acetamide]
7.7 nM |  | Cc1nc(NC(=O)C2CC2)sc1-c1cc2c(c(P(C)(C)=O)c1)C(=O)N([C@@H](C)C1CC1)C2 [Compound 3, (S)-N-(5-(2-(1-cyclopropylethyl)-7-(dimethylphosphoryl)-1-oxoisoindolin-5-yl)-4-methylthiazol-2-yl)cyclopropanecarboxamide]
5.9 nM | 307 nM | CCP(=O)(CC)c1cc(-c2sc(NC(C)=O)nc2C)cc2c1C(=O)N([C@@H](C)C1CC1)C2 [Compound 5, (S)-N-(5-(2-(1-cyclopropylethyl)-7-(diethylphosphoryl)-1-oxoisoindolin-5-yl)-4-methylthiazol-2-yl)acetamide]
2.6 nM |  | [2H]C([2H])([2H])Oc1nc(-c2sc(NC(C)=O)nc2C)cc2c1C(=O)N([C@@H](C)C1CC1)C2 [Compound 43, (S)-N-(5-(2-(1-cyclopropylethyl)-4-(methoxy-d3)-3-oxo-2,3-dihydro-1H-pyrrolo[3,4-c]pyridin-6-yl)-4-methylthiazol-2-yl)acetamide]
0.8 nM |  | CC(=O)Nc1nc(C)c(-c2cc3c(c(NC(=O)C4CC4C#N)n2)C(=O)N([C@@H](C)C2CC2)C3)s1 (stereo partly drawn) [Compound 45, N-(6-(2-acetamido-4-methylthiazol-5-yl)-2-((S)-1-cyclopropylethyl)-3-oxo-2,3-dihydro-1H-pyrrolo[3,4-c]pyridin-4-yl)-2-cyanocyclopropane-1-carboxamide]
29 nM | 29 nM | CC(=O)Nc1nc(C)c(-c2cc3c(c(C)n2)C(=O)N([C@@H](C)C2CC2)C3)s1 [Compound 27, (S)-N-(5-(2-(1-cyclopropylethyl)-4-methyl-3-oxo-2,3-dihydro-1H-pyrrolo[3,4-c]pyridin-6-yl)-4-methylthiazol-2-yl)acetamide]
